How the values were obtained:
male ZSF1 rats [1] = test: Treatment of male ZSF1 rats for 24 weeks with 2-hydroxyestradiol or 2-methoxyestradiol; assay type: in vivo, rat
Description: Male ZSF1 rats were treated continuously for 24 weeks with polyethylene glycol 400 (PEG 400) (Sigma, St. Louis, Mo.) or one of three doses of 2-hydroxyestradiol or 2-methoxyestradiol (Steraloids, Inc. Newport, R.I.) dissolved in PEG 400. The three doses were 1 ug/kg/hr, 3 ug/kg/hr or 10 ug/kg/hr. Female ZSF1 rats were treated continuously for 24 weeks with either PEG 400 or 10 ug/kg/hr of 2-hydroxyestradiol. Female ZSF1 rats were ovarectomized at 11 weeks of age. For all animals, both male and female, treatments with estradiol metabolites were begun at approximately 13 weeks of age. One group of male ZSF1 rats received only PEG 400 but were pair fed to receive the same daily food intake as the male ZSF1 rats treated with 10 ug/kg/hr 2-hydroxyestradiol. Treatment was administered via subcutaneous implanted pumps (Alzet Osmotic Pump, Model 2ML4, Alza Corporation, Palo Alto, Calif.). The study was designed to evaluate treatment effects and dose responses on body weight, food intake, water intake, urine output, urinary protein excretion, cholesterol levels, plasma glucose levels and glucose tolerance.
Stock solutions of both 2-hydroxyestradiol and 2-methoxyestradiol were made by dissolving the required amount of estradiol metabolite in PEG 400. This solution was diluted in PEG 400 to deliver the three required doses based on the mean weight of each treatment group and the stated volume delivery rate for each lot of osmotic pumps in the study. This stock solution was prepared fresh prior to each osmotic pump implantation in each group. The control solution of PEG 400 was created in the same manner.
All treatments were administered via a subcutaneously implanted osmotic pump (Alzet Osmotic Pump, Model 2ML4, Alza Corporation, Palo Alto, Calif.). Each lot of osmotic pumps were delivered with the stated rate of delivery and formulation concentrations were adjusted to ensure delivery of 1,3, or 10 ug/kg/hr based on the stated rate of delivery of each lot. Doses were adjusted for the mean weight of the animals in the treatment group obtained 24 hours prior to implantation of the osmotic minipump.
Animals were anesthetized prior to implantation of an osmotic minipump with halothane and oxygen (2.5 liter/min) delivered by a Fluotec 3 anesthetic device (Ohmeda, Steeton, UK). After lightly anesthetizing each animal, implantation was accomplished by shaving the back and creating a half-inch incision in which to insert the osmotic minipump. The incision was then closed with wound clips that were removed in seven days. Osmotic minipumps were replaced at 33-day intervals and each time a particular animal received an osmotic minipump, the insertion point was changed.
Metabolic cages (Nalgene, Rochester, N.Y.) were used in this study. Animals were placed in metabolic cages for 48 hours. The first 24-hour period was considered an acclimation period, while food and fluid intake and urine volume were measured during the second 24-hour period. Additionally, a tail vein sample was obtained to measure blood glucose, sodium, potassium, albumin and creatinine. The blood was further analyzed to assess creatinine clearance, fractional sodium excretion, fractional potassium excretion and fractional albumin excretion. In addition, the following criteria were also assessed while the animals were in the metabolic cages: body weight, feed intake, water intake, urine output, urinary protein, urinary albumin, urinary glucose, urinary sodium and urinary potassium.
Body weights were assessed 24 hours before pump implantation and those weights were used to calculate the dosage of drug or vehicle to be given to each animal based on the mean body weight of each group. Animals were weighed approximately once every two months prior to being placed in a metabolic cage.
Food intake was measured by filling the food containers with standard powder laboratory food up to a total weight of 250 grams. […]

male ZSF1 rats [2] = test: as above; assay type: in vivo, rat; details: 10 ug/kg/hr, 28 weeks, versus control animals
rats = details: Oparil et al., Circulation 95:1301 (1997); cited from earlier work
[3] = Kernan et al., 2000; cited from earlier work
[4] = male, 10 ug/kg/hr, 24 weeks, versus control animals
[5] = male, 1, 3 or 10 ug/kg/hr s.c. osmotic pump, 24 weeks, versus control

For COc1cc2c(cc1O)CC[C@@H]1[C@@H]2CC[C@]2(C)[C@@H](O)CC[C@@H]12 [2-methoxyestradiol, estra-1,3,5 (10)-triene-2-methoxy-3,17-diol (17β)], the “Leptin levels (FIG. 11)” value (male ZSF1 rats [1]; male, 10 ug/kg/hr, 20 weeks, versus control animals) was “clearly reduced”, the “24-hour urine output (FIG. 13)” value (male ZSF1 rats [1]; [4]) was “lower” and the “24-hour water intake (FIG. 12)” value (male ZSF1 rats [1]; [4]) was “lower”. The “Blood urea nitrogen (FIG. 10)” value (male ZSF1 rats [1]; male, 10 ug/kg/hr, 24 weeks, versus control groups) was “lower”, the “Plasma level of glucose after administration of 2 g/4 ml/kg glucose (oral glucose tolerance test, FIGS. 8 and 9)” value (male ZSF1 rats [1]; male, 10 ug/kg/hr, treated for 14 to 15 weeks, versus control groups) was “lower” and the “Body weight gain (FIGS. 4 and 5)” value (male ZSF1 rats [1]; [5]) was “less body weight gain”. The Food intake (male ZSF1 rats [1]; [5]) was “lower food intake”, the “Urinary protein excretion (FIG. 7)” value (male ZSF1 rats [1]; male, 1, 3 or 10 ug/kg/hr, after 24 weeks of treatment, versus control animals) was “lower” and the “Glycated hemoglobin (HbA1c) (FIG. 14)” value (male ZSF1 rats [2]) was “lower”.
In the case of C[C@]12CC[C@@H]3c4ccc(O)cc4CC[C@H]3[C@@H]1CC[C@@H]2O [17β-estradiol], the “Body weight of rats” value (rats) is given as “reduction” and the Vascular protection (rats) is given as “vascular protection”.
For CC(N)C(O)c1ccccc1 (stereo not drawn) [phenylpropanolamine], the “Adverse effect (stroke)” value [3] is listed as “causes stroke”.

Source: patent publication US6998395B2, “Administration of estradiol metabolites for the treatment or prevention of obesity, metabolic syndrome, diabetes, and vascular and renal disorders” (University of Pittsburg,, priority 2001, dated 2006)
